Measurements: PMC10122656, “Siglec-6 mediates the uptake of extracellular vesicles through a noncanonical glycolipid binding pocket” (Nature Communications, 2023)
“And” between values parts separate entries of the source, which are not always exact repeats. Equal values may be shown once.

Assays:
Siglec-9 R120A CHO cells = molecular target: T1, Siglec-9 R120A CHO cells (Homo sapiens, UniProt Q9Y336, R120A); assay: Cell assay (liposome/EV binding, flow cytometry); format: cell-based; settings: Sig-9 R120A†; † after treatment of cells with neuraminidase; 3 mol% ganglioside liposomes; replicates
T1 construct: expressed in transfected cells
T1 sequence (Q9Y336 18-463 R120A): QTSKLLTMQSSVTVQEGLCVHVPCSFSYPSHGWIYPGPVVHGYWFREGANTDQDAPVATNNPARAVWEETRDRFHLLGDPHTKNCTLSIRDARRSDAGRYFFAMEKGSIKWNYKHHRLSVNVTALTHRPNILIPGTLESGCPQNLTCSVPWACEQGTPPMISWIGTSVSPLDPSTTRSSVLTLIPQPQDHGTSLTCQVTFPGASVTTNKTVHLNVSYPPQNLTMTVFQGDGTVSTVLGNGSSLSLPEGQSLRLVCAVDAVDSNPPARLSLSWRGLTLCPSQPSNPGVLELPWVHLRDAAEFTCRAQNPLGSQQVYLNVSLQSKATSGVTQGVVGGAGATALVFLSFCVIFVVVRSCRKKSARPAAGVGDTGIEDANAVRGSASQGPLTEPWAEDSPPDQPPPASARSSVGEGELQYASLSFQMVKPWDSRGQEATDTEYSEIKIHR
Experimental: (§1) Stock lipids (DSPC, Cholesterol, PEG45–DSPE) solutions were prepared by solvating the lipids in chloroform. An appropriate volume of each lipid solution was transferred to a glass test tube to reach the desired mol% of the component. The chloroform was then removed under N2 gas to yield a lipid thin film. Once dry, 100 µL of DMSO was added to the lipid-containing test tube and then the functional lipids (ganglioside, AF647–PEG45–DSPE, Siglec ligand–PEG45–DSPE, pHrodo–PEG45–DSPE, NGL) was added from their respect DMSO stock solution. The lipid mixture was then stored at −80 °C until completely frozen at which point excess DMSO was removed via lyophilization. Dry lipids were then stored at −80 °C until they were extruded. Lipid suppliers can be found in Supplementary Table 4.
(§2) Dry lipids were then hydrated in 1 mL of PBS. The lipids were then sonicated in a bath sonicator in a cycle of 1 min on, 5 min off for a total of five cycles. Liposomes were then extruded using an Avanti mini extruder first using an 800 nm filter and then a 100 nm filter yielding liposomes that were 130 ± 35 nm (Supplementary Table 5) measured using a Malvern Panalytical Zetasizer Nano S. Liposomes were stored at 4 °C.
(§3) 200,000 cells/well were plated into a 96-well U-bottom microplate and centrifuged at 300 × g for 5 min. The cells were then resuspended in 50 µL of 50 µM liposome/50 µg/mL (protein concentration) of EV solution in DMEM F12 5% FBS and incubated at 37 °C for 30 min. Excess liposomes were then removed via centrifuged at 300 × g for 5 min followed by washing the cells with FACS solution. The cells were then resuspended in (1:250 V/V) anti-Siglec-flow buffer (1% V/V FBS, 500 µM, EDTA Hank’s Balanced Salt Solution pH 7.4), solution and left to rest on ice for 30 min. The cells were then centrifuged again at 300 × g for 5 min and the cells were resuspended in FACS buffer solution and were then ready for analysis by flow cytometry. Information regarding antibody clone, catalog number supplier, label isotype, and dilution can be found in Supplementary Table 6. The Siglec-positive cells were gated on for liposome-binding analysis (Supplementary Fig. 1b).
(§4) Flow cytometry measurements were collected on a 5-laser Fortessa X-20 (BD Bioscience). All the resulting data were analyzed using FlowJo (10.5.3) software (BD Biosciences).
Cells were harvested and resuspended in complete media with either Neuraminidase A or S. The cells were then placed in a 37 °C shaking incubator for 1 h. The cells were then washed with complete media and then the liposome binding assay was performed as described above.

Siglec-6-Fc WT = molecular target: T2, Siglec-6-Fc WT (Homo sapiens, UniProt O43699); assay: Ganglioside ELISA; format: binding; settings: for ganglioside ELISA signal, Siglec-6 WT: Figure 2c, replicates; for ELISA recognition of adsorbed ganglioside by Siglec-6 (in words): ganglioside adsorbed to microplate, outside a bilayer
T2 construct: the Siglecs as Fc chimeras; made in house; host or cells: WT CHO cells
T2 sequence (O43699 27-347 limits assumed): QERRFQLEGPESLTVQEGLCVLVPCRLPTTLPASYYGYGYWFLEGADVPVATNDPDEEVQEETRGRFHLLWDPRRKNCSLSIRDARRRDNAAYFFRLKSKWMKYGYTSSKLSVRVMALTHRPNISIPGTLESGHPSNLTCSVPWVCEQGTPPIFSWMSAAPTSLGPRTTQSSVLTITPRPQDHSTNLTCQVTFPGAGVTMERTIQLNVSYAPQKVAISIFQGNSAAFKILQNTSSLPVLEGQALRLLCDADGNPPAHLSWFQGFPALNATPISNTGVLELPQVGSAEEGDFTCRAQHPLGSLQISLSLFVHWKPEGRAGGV
Experimental: (§5) Siglec-Fc constructs designed by Rodrigues et al.[30] were used in this work. Siglec-Fc constructs were expressed using WT CHO cells in cell culture media as described above with 1% HEPES. Cells incubated as described above for one-week post confluency. The supernatant was harvested and stored at 4 °C.
(§6) The purification was heavily inspired by Rodrigues et al.[30]. The purification of the Siglec-Fcs from supernatant began with Ni^2+ affinity chromatography using an AKTA FPLC equipped with a HisTrap Excel column (GE). The column was equilibrated with fifteen column volumes (CVs) of equilibrium buffer (500 mM NaCl, 20 mM NaPO4H2, pH 7.4). The Siglec-Fc containing supernatant was then loaded in its entirety onto the column. The column was then washed with fifteen CVs of wash buffer (500 mM NaCl, 30 mM imidazole, 20 mM NaPO4H2, pH 7.4). The Siglec-Fc was then eluted in 20 in 1 mL fractions with twenty CVs of elution buffer (500 mM NaCl, 500 mM imidazole, 20 mM NaPO4H2, pH 7.4). Fractions containing Siglec-Fc were compiled and then prepared for the next stage of purification by diluting the fractions 1:4 with buffer W (100 mM Tris–HCl, 150 mM NaCl, 1 mM EDTA, pH 8.0). A Strep-Tactin column (IBA life sciences) was washed with fifteen CVs of buffer W. The Siglec-Fc-buffer W solution was then loaded in its entirety onto the column. The bound Siglec-Fc was then washed with fifteen CVs of buffer W. Siglec-Fc was eluted from the column with 15 column volumes of buffer E (100 mM Tris–HCl, 150 mM NaCl, 1 mM EDTA, 10 mM d-Desthiobiotin, pH 8.0). Fractions containing Siglec-Fc were pooled and dialyzed against PBS to remove any d-Desthiobiotin. After dialysis, Siglec-Fcs were concentrated using an ultra-centrifugal device (30 kDa MWCO) and aliquoted into 5 µg aliquots, and frozen. The Siglec-Fcs were then lyophilized overnight, and the lyophilized Siglec-Fcs were stored at −20 °C.
(§7) Our ELISA approach was carried out similarly to previous work by Rapoport[12] and Yamakawa[44]. Ganglioside ethanol solutions (10 µM) were prepared and then transferred in 50 µL increments to a 96-well microplate. The ethanol was removed by drying the plates overnight at room temperature. The plates were then washed with PBS, dried, and then blocked with 5% (m/V) BSA PBS for 1 h. The plates were then washed with PBS and then 2 µg/mL Siglec-Fc precomplexed to Strep-Tactin (2 Siglec-Fc:1 Strep-Tactin monomer) horse radish peroxidase was added to the microplate. The complex was incubated with the plate at room temperature for 2 h. The unbound complexes were then removed by washing in PBS and the plate was developed with Sera care TMB solution. The amount of binding was then quantified by using the background (microplate well with no ligand) subtracted absorbance at 450 nm using a Molecular Devices SpectraMAX ® iD5.

Siglec-7-Fc WT = molecular target: T3, Siglec-7-Fc WT (Homo sapiens, UniProt Q9Y286); assay: Ganglioside ELISA; format: binding; settings: Figure 2c, replicates
T3 construct: the Siglecs as Fc chimeras; made in house; host or cells: WT CHO cells
T3 sequence (Q9Y286 19-353 limits assumed): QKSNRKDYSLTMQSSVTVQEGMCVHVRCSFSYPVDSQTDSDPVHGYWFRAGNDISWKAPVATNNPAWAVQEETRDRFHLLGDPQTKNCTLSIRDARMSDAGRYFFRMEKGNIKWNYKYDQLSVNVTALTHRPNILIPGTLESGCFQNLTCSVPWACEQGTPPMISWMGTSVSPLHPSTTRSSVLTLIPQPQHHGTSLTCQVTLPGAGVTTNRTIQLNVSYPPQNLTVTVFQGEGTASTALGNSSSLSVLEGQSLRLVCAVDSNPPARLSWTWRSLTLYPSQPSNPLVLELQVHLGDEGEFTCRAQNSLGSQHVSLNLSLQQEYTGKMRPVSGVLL
Experimental: as §5, §6, §7

Siglec-1-Fc WT = Siglec-1-Fc WT (Homo sapiens, UniProt Q9BZZ2); assay: Ganglioside ELISA; format: binding; settings: Figure 2c, replicates
Chain of Siglec-1-Fc WT (Q9BZZ2 20-136 limits assumed): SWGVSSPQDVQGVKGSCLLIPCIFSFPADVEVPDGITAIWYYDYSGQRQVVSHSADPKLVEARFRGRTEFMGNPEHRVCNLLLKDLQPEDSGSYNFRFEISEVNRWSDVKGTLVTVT
Experimental: as §5, §6, §7

Siglec-7-Fc R124A = molecular target: T4, Siglec-7-Fc R124A (Homo sapiens, UniProt Q9Y286, R124A); assay: Ganglioside ELISA; format: binding; settings: Figure 2c, replicates
T4 construct: the Siglecs as Fc chimeras; made in house; host or cells: WT CHO cells
T4 sequence (Q9Y286 19-353 R124A limits assumed): as the sequence (Q9Y286 19-353 limits assumed) above, with R106A counted along it
Experimental: as §5, §6, §7

R122A Siglec-6-Fc = molecular target: T5, R122A Siglec-6-Fc (Homo sapiens, UniProt O43699, R122A); assay: Ganglioside ELISA; format: binding; settings: Figure 2c, replicates
T5 construct: the Siglecs as Fc chimeras; made in house; host or cells: WT CHO cells
T5 sequence (O43699 27-347 R122A limits assumed): as the sequence (O43699 27-347 limits assumed) above, with R96A counted along it
Experimental: as §5, §6, §7

WT Siglec-1 CHO cells = molecular target: T6, WT Siglec-1 CHO cells (Homo sapiens, UniProt Q9BZZ2); assay: Cell assay (liposome/EV binding, flow cytometry); format: cell-based; parameters: GM1 liposome binding to Siglec-1 CHO cells, flow cytometry (Fig. 1b) / Binding of liposomes with increasing ganglioside content against Siglec-1 CHO cells (Fig. 1c) / Liposome binding to Siglec-1-expressing CHO cells in the cell assay (Fig. 1f): unit not given here; settings: for Binding of liposomes with increasing ganglioside content against Siglec-1 CHO cells (Fig. 1c) / log10(MFI AF647) of GLL relative to log10(MFI AF647) of the same GLL against UT CHO cells (Fig. 2a): replicates; for log10(MFI AF647) of GLL relative to log10(MFI AF647) of the same GLL against UT CHO cells (Fig. 2a): Sig-1 WT, 3 mol% ganglioside liposomes
T6 construct: expressed in transfected cells
T6 sequence (Q9BZZ2 20-1709): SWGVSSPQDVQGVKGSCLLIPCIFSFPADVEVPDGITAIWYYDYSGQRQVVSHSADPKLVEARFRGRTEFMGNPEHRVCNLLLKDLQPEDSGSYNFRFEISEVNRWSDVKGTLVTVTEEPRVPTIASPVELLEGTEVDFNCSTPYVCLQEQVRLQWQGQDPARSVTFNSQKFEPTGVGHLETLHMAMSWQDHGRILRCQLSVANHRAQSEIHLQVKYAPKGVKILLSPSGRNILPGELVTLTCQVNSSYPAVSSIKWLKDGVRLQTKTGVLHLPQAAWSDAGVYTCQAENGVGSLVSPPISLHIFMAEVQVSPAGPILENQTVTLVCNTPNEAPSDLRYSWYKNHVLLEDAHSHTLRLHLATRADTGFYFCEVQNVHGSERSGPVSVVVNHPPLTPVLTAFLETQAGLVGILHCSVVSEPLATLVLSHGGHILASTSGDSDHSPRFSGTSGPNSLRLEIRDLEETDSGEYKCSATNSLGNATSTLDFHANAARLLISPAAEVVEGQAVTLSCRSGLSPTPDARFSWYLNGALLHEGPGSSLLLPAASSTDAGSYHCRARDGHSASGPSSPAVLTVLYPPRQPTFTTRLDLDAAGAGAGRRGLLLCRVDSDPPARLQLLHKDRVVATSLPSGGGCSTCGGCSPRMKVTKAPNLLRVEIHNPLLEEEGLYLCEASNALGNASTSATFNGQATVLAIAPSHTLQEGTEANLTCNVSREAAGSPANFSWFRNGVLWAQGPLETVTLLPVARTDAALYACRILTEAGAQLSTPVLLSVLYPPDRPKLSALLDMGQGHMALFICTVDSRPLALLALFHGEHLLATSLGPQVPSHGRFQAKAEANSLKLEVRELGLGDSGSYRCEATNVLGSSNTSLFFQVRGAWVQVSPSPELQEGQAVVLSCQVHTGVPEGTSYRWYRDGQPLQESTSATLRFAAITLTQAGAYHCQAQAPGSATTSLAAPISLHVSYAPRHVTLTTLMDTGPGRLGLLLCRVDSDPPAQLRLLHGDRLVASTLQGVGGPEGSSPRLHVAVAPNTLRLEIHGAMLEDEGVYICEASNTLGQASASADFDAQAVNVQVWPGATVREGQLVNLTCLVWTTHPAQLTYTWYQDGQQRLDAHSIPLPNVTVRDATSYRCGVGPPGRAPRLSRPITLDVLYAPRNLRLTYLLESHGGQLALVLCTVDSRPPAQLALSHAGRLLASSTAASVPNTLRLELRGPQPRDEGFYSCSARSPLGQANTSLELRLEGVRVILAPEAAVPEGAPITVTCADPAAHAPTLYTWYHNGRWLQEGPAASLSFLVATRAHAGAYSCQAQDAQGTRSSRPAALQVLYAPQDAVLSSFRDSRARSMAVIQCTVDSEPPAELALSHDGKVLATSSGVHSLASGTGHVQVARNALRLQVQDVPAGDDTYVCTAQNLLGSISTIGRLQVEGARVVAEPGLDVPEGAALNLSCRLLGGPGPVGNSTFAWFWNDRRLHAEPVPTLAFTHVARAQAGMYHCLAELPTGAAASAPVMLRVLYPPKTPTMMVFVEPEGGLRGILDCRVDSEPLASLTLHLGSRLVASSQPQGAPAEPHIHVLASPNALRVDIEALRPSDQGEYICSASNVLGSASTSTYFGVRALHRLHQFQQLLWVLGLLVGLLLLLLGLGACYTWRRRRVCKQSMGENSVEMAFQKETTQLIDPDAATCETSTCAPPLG
Experimental: as §1, §2, §3, §4

Row | Substance | log10(MFI AF647) of GLL relative to log10(MFI AF647) of the same GLL against UT CHO cells (Fig. 2a) (Siglec-9 R120A CHO cells) | ganglioside ELISA signal, Siglec-6 WT (Siglec-6-Fc WT) | ganglioside ELISA signal, Siglec-7 WT (Siglec-7-Fc WT) | ganglioside ELISA signal, Siglec-1 WT (Siglec-1-Fc WT) | ganglioside ELISA signal, Siglec-7 R (Siglec-7-Fc R124A) | ganglioside ELISA signal, Siglec-6 R (R122A Siglec-6-Fc) | Binding of liposomes with increasing ganglioside content against Siglec-1 CHO cells (Fig. 1c) (WT Siglec-1 CHO cells; 0.00187 Ligand/nm2) | Binding of liposomes with increasing ganglioside content against Siglec-1 CHO cells (Fig. 1c) (WT Siglec-1 CHO cells; 0.00933 Ligand/nm2) | Binding of liposomes with increasing ganglioside content against Siglec-1 CHO cells (Fig. 1c) (WT Siglec-1 CHO cells; 0.0187 Ligand/nm2) | Binding of liposomes with increasing ganglioside content against Siglec-1 CHO cells (Fig. 1c) (WT Siglec-1 CHO cells; 0.056 Ligand/nm2) | Binding of liposomes with increasing ganglioside content against Siglec-1 CHO cells (Fig. 1c) (WT Siglec-1 CHO cells; 0.0933 Ligand/nm2) | Binding of liposomes with increasing ganglioside content against Siglec-1 CHO cells (Fig. 1c) (WT Siglec-1 CHO cells; 0.373 Ligand/nm2) | log10(MFI AF647) of GLL relative to log10(MFI AF647) of the same GLL against UT CHO cells (Fig. 2a) (WT Siglec-1 CHO cells) | ganglioside content threshold above which GLL binding to Siglec-1 CHO cells decreased (WT Siglec-1 CHO cells; ganglioside titrated in GLLs) | ELISA recognition of adsorbed ganglioside by Siglec-6 (in words) (Siglec-6-Fc WT) | Binding of liposomes with increasing ganglioside content against Siglec-1 CHO cells (Fig. 1c) (WT Siglec-1 CHO cells; 0.187 Ligand/nm2) | trend of GLL binding to Siglec-1 CHO cells with ganglioside content (WT Siglec-1 CHO cells; ganglioside titrated in GLLs)
1 | GM2 | 0.15 and 0.16 and 0.17 (2×) | 0 and 0.04 and 0.02 and 0.03 | 0.12 and 0.09 and 0.1 and 0.06 | 0.89 and 1.09 and 1.03 and 1.06 | -0.01 and 0 and -0.02 | 0.04 and 0.05 and 0.06 and 0.07 | -0.01 | 0.11 (2×) and 0.13 and 0.16 | 1.01 and 0.97 and 1 and 1.02 | 0.8 and 0.79 and 0.78 (2×) | 0.59 and 0.57 and 0.55 (2×) | 0.24 and 0.22 (3×) | 1.23 and 1.19 and 1.21 and 1.2 | 1–3 mol% | – | – | –
2 | GM3 | -0.21 and -0.17 and -0.15 and -0.13 | 0.27 and 0.3 and 0.26 | 0.61 and 0.6 and 0.68 and 0.7 | 0.99 and 1.04 and 1.15 and 1.05 | -0.02 and 0 | 0.34 and 0.37 and 0.41 and 0.4 | – | – | 0 | 0.02 | 0.04 | 0.33 and 0.36 and 0.26 | 0.19 and 0.16 and 0.23 and 0.17 | – | interacted weakly | 0.13 (2×) and 0.12 and 0.14 and 0.16 (4×) | progressive increase in GLL binding up to 20 mol%
3 | GM4 | 0.05 and 0.07 and 0.08 (2×) | 0.22 and 0.25 and 0.27 and 0.23 | 0.52 and 0.45 and 0.53 and 0.58 | 0.62 and 0.66 and 0.72 and 0.59 | -0.01 and 0 and -0.02 | 0.26 and 0.23 and 0.24 and 0.28 | – | – | – | – | – | – | 0.04 and 0.02 (2×) and -0.02 | – | interacted weakly | – | –
4 | GQ1b | 0.15 and 0.12 and 0.13 and 0.1 | -0.1 and -0.02 and -0.09 and -0.12 | 0.66 and 0.63 and 0.69 | 0.15 and 0.21 and 0.24 and 0.23 | -0.01 and 0 | 0.11 and 0.1 and 0.13 and 0.12 | – | – | – | – | – | – | 0.04 and 0.07 and 0.05 and 0.03 | – | did not recognize | – | –
5 | GT1b | 0.16 (2×) and 0.11 and 0.15 | -0.04 and -0.01 and -0.09 and -0.11 | 0.49 and 0.55 and 0.5 | 0.25 and 0.3 and 0.43 and 0.46 | -0.01 and -0.02 | 0.11 and 0.08 and 0.1 and 0.13 | – | – | – | – | – | – | 0.29 (2×) and 0.32 and 0.23 | – | did not recognize | – | –
